The values below come from patent US10039747B2, “Tetrahydrocyclopentapyrrole derivatives and a method for preparing the same” (Daewoong Pharmaceutical Co., Ltd., priority 2013, dated 2018).

For the test, the target named is T1, H+/K+-ATPase (Sus scrofa, UniProt P19156).
T1 construct: reaction buffer solution (60 mmol/l Tris-HCl buffer solution, pH 7.4) containing hog gastric vesicle; from tissue; host or cells: hog stomach (gastric vesicles, by centrifugation after Rabon et al. 1988)
T1 sequence (P19156 2-1034 limits assumed): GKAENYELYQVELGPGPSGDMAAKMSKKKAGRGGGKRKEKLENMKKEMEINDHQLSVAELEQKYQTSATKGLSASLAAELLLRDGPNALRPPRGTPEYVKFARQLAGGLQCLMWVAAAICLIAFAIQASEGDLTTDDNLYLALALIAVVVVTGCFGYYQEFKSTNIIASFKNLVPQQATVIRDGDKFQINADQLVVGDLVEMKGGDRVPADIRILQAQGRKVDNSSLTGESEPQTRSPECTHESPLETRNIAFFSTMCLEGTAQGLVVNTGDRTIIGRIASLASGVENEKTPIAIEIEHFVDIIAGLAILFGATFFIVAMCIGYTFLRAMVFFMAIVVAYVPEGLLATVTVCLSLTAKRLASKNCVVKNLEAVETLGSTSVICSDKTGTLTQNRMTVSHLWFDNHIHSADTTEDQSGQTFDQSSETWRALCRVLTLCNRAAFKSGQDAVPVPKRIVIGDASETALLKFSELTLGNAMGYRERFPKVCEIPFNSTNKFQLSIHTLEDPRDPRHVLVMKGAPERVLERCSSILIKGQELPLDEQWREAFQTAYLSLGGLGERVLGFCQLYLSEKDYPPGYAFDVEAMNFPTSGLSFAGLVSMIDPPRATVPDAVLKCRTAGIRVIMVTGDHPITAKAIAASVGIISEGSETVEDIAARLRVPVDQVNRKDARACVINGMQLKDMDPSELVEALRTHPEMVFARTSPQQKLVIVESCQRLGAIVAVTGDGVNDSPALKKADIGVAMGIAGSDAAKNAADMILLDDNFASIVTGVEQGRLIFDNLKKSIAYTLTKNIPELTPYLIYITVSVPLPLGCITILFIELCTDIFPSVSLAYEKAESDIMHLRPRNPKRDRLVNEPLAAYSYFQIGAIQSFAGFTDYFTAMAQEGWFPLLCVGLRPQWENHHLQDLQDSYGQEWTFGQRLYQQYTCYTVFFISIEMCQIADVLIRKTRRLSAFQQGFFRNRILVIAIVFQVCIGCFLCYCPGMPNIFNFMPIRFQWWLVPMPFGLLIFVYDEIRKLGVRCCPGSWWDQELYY
T1 sequence (P18434 whole entry partner): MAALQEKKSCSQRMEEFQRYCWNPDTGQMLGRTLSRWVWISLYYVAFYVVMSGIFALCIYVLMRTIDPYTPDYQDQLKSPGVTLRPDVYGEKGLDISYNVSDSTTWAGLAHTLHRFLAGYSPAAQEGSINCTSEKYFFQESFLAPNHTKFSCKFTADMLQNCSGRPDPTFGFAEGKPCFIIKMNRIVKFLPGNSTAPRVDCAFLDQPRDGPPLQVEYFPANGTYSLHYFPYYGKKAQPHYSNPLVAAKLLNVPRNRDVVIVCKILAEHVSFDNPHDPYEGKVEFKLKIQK
In words: Inhibition of proton pump (H+/K+-ATPase) activity in hog gastric vesicles. Format: biochemical. Particulars: K+ specific H+/K+-ATPase activity, pH 7.4, 37° C. for 40 minutes, malachite green. Summed up:
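Hog gastric vesicles in 60 mmol/l Tris-HCl pH 7.4 with compound, started with ATP, 40 min at 37° C. Pi read by malachite green at 570 nm; K+-specific activity taken as difference between +K+ and −K+ activity. IC50 from % inhibition by 4-parameter logistic fit.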
In general, IC50 refers to the point on the concentration scale where inhibition reaches its midpoint. A higher IC50 goes with a need for much substance. Turning to `CNC1CCc2c1cn(S(=O)(=O)c1cccc(Cl)c1)c2-c1ccc(F)cc1` (centres unmarked) [Example 11, 2-((3-chlorophenyl)sulfonyl)-1-(4-fluorophenyl)-N-methyl-2,4,5,6-tetrahydrocyclopenta[c]pyrrol-4-amine], inhibition was half-maximal at 550 nM (IC50).

The molecule `CN(C)C1CCCc2c1cn(S(=O)(=O)c1cccc(C(F)(F)F)c1)c2-c1ccccc1F` (centres unmarked) [Example 139, 1-(2-fluorophenyl)-N,N-dimethyl-2-((3-(trifluoromethyl)phenyl)sulfonyl)-4,5,6,7-tetrahydro-2H-isoindole-4-amine] had an IC50 of 9070 nM. Compared with the last molecule, the IC50 is about 16-fold higher.

In the case of `CNC1CCc2c1cn(S(=O)(=O)c1cccnc1)c2-c1cc(Cl)cc(C)c1F` (centres unmarked) [Example 93, 1-(5-chloro-2-fluoro-3-methylphenyl)-N-methyl-2-(pyridin-3-ylsulfonyl)-2,4,5,6-tetrahydrocyclopenta[c]pyrrol-4-amine], the IC50 turned out to be 340 nM.

Molecule `CNC1CCc2c1cn(S(=O)(=O)c1ccc(OC)nc1Cl)c2-c1ccccc1F` (centres unmarked) [Example 98, 2-((2-chloro-6-methoxypyridin-3-yl)sulfonyl)-1-(2-fluorophenyl)-N-methyl-2,4,5,6-tetrahydrocyclopenta[c]pyrrol-4-amine] came in with an IC50 of 3620 nM.

With `CNC1CCc2c1cn(S(=O)(=O)c1cccc(C(=O)N3CCOCC3)c1)c2-c1ccccc1F` (centres unmarked) [Example 58, (3-((1-(2-fluorophenyl)-4-(methylamino)-5,6-dihydrocyclopenta[c]pyrrol-2(4H)-yl)sulfonyl)phenyl)(morpholino)methanone], half-maximal inhibition (IC50) was put at 5780 nM.

`CNC1CCc2c1cn(S(=O)(=O)c1cccc(OC(F)F)c1)c2-c1ccccc1F` (centres unmarked) [Example 57, 2-((3-(difluoromethoxy)phenyl)sulfonyl)-1-(2-fluorophenyl)-N-methyl-2,4,5,6-tetrahydrocyclopenta[c]pyrrol-4-amine] had an IC50 of 420 nM.

Molecule `CNC1CCc2c1cn(S(=O)(=O)c1cccc(Cl)c1)c2-c1cccnc1` (centres unmarked) [Example 37, 2-((3-chlorophenyl)sulfonyl)-N-methyl-1-(pyridin-3-yl)-2,4,5,6-tetrahydrocyclopenta[c]pyrrol-4-amine] yielded an IC50 of 1490 nM.

On to `CNC1CCc2c1cn(S(=O)(=O)c1cccc(Cl)c1)c2-c1ccc(C#N)cc1` (centres unmarked) [Example 13, 4-(2-((3-chlorophenyl)sulfonyl)-4-(methylamino)-2,4,5,6-tetrahydrocyclopenta[c]pyrrol-1-yl)benzonitrile], for which the IC50 was determined as 1800 nM.

In the case of `Cc1oc(=O)oc1COC(=O)N(C)C1CCc2c1cn(S(=O)(=O)c1cccc(Cl)c1)c2-c1ccccc1F` (centres unmarked) [Example 118, (5-methyl-2-oxo-1,3-dioxol-4-yl)methyl (2-((3-chlorophenyl)sulfonyl)-1-(2-fluorophenyl)-2,4,5,6-tetrahydrocyclopenta[c]pyrrol-4-yl)(methyl)carbamate], the IC50 was found to be 40000 nM.

Turning to `CNC1CCc2c1cn(S(=O)(=O)c1cccc(Cl)c1)c2-c1ccc(N2CCOCC2)nc1` (centres unmarked) [Example 41, 2-((3-chlorophenyl)sulfonyl)-N-methyl-1-(6-morpholinopyridin-3-yl)-2,4,5,6-tetrahydrocyclopenta[c]pyrrol-4-amine], 3880 nM corresponded to half-maximal inhibition (IC50). This IC50 lies about 10-fold lower than the previous one.

`CNC1CCc2c1cn(S(=O)(=O)c1cccc(Cl)c1)c2-c1ccc(O)cc1` (centres unmarked) [Example 12, 4-(2-((3-chlorophenyl)sulfonyl)-4-(methylamino)-2,4,5,6-tetrahydrocyclopenta[c]pyrrol-1-yl)phenol]: the half-inhibitory concentration (IC50) stood at 470 nM. Against the preceding molecule, the IC50 is about 8.3-fold lower.

Molecule `CNC1CCc2c1cn(S(=O)(=O)c1cccc(Cl)c1)c2-c1ccc2occc2c1` (centres unmarked) [Example 29, 1-(benzofuran-5-yl)-2-((3-chlorophenyl)sulfonyl)-N-methyl-2,4,5,6-tetrahydrocyclopenta[c]pyrrol-4-amine] registered an IC50 of 1280 nM. Compared with the last molecule, the IC50 is about 2.7-fold higher.

Molecule `CNC1CCc2c1cn(Cc1cccc(OC)c1)c2-c1ccccc1F` (centres unmarked) [Example 111, 1-(2-fluorophenyl)-2-(3-methoxybenzyl)-N-methyl-2,4,5,6-tetrahydrocyclopenta[c]pyrrol-4-amine] displayed an IC50 of 2570 nM.

`CNC1CCc2c1cn(C(=O)c1cccc(Cl)c1)c2-c1ccc(F)cc1F` (centres unmarked) [Example 114, (3-chlorophenyl)(1-(2,4-difluorophenyl)-4-(methylamino)-5,6-dihydrocyclopenta[c]pyrrol-2(4H)-yl)methanone] returned an IC50 of 30100 nM.

`CNC1CCc2c1cn(S(=O)(=O)c1cc(Cl)c(Cl)cc1Cl)c2-c1cc(Cl)ccc1Cl` (centres unmarked) [Example 83, 1-(2,5-dichlorophenyl)-N-methyl-2-((2,4,5-trichlorophenyl)sulfonyl)-2,4,5,6-tetrahydrocyclopenta[c]pyrrol-4-amine] gave an IC50 of 980 nM.

The molecule `CNC1CCc2c1cn(S(=O)(=O)c1cccc(Cl)c1)c2-c1ccc(F)c(F)c1` (centres unmarked) [Example 24, 2-((3-chlorophenyl)sulfonyl)-1-(3,4-difluorophenyl)-N-methyl-2,4,5,6-tetrahydrocyclopenta[c]pyrrol-4-amine] yielded an IC50 of 480 nM. Against the preceding molecule, the IC50 is about 2-fold lower.

In turn, `CNC1CCCc2c1cn(S(=O)(=O)c1cccnc1)c2-c1ccc(-c2ccccc2)cc1` (centres unmarked) [Example 134, 1-([1,1′-biphenyl]-4-yl)-N-methyl-2-(pyridin-3-ylsulfonyl)-4,5,6,7-tetrahydro-2H-isoindole-4-amine] had an IC50 of 19700 nM.

`CNC1CCc2c1cn(S(=O)(=O)c1ccc(F)cc1)c2-c1cc(Cl)ccc1Cl` (centres unmarked) [Example 61, 1-(2,5-dichlorophenyl)-2-((4-fluorophenyl)sulfonyl)-N-methyl-2,4,5,6-tetrahydrocyclopenta[c]pyrrol-4-amine] registered an IC50 of 770 nM.

Molecule `CNC1CCc2c1cn(S(=O)(=O)c1c(Cl)cccc1Cl)c2-c1ccccc1F` (centres unmarked) [Example 75, 2-((2,6-dichlorophenyl)sulfonyl)-1-(2-fluorophenyl)-N-methyl-2,4,5,6-tetrahydrocyclopenta[c]pyrrol-4-amine] returned an IC50 of 2140 nM.

For the molecule `CNC1CCc2c1cn(S(=O)(=O)c1cccs1)c2-c1ccccc1F` (centres unmarked) [Example 87, 1-(2-fluorophenyl)-N-methyl-2-(thiophen-2-ylsulfonyl)-2,4,5,6-tetrahydrocyclopenta[c]pyrrol-4-amine], the IC50 was 1440 nM.

As to `CNC1CCc2c1cn(S(=O)(=O)c1ccc(C(F)(F)F)cc1Cl)c2-c1ccccc1F` (centres unmarked) [Example 69, 2-((2-chloro-4-(trifluoromethyl)phenyl)sulfonyl)-1-(2-fluorophenyl)-N-methyl-2,4,5,6-tetrahydrocyclopenta[c]pyrrol-4-amine], the IC50 stood at 1620 nM.

In turn, `CNC1CCCc2c1cn(S(=O)(=O)c1cccnc1)c2-c1ccccc1Cl` (centres unmarked) [Example 133, 1-(2-chlorophenyl)-N-methyl-2-(pyridin-3-ylsulfonyl)-4,5,6,7-tetrahydro-2H-isoindole-4-amine] displayed an IC50 of 2000 nM.

Take `CNC1CCc2c1cn(S(=O)(=O)c1cncc(Cl)c1)c2-c1ccccc1F` (centres unmarked) [Example 95, 2-((5-chloropyridin-3-yl)sulfonyl)-1-(2-fluorophenyl)-N-methyl-2,4,5,6-tetrahydrocyclopenta[c]pyrrol-4-amine]: 1720 nM corresponded to half-maximal inhibition (IC50).

In turn, `Cc1oc(=O)oc1COC(=O)N(C)C1CCc2c1cn(S(=O)(=O)c1cccc(F)c1)c2-c1ccc(F)cc1F` (centres unmarked) [Example 116, (5-methyl-2-oxo-1,3-dioxol-4-yl)methyl (1-(2,4-difluorophenyl)-2-((3-fluorophenyl)sulfonyl)-2,4,5,6-tetrahydrocyclopenta[c]pyrrol-4-yl)(methyl)carbamate] came in with an IC50 of 26200 nM.

Consider `CNC1CCc2c1cn(S(=O)(=O)c1cccnc1)c2-c1ccsc1` (centres unmarked) [Example 94, N-methyl-2-(pyridin-3-ylsulfonyl)-1-(thiophen-3-yl)-2,4,5,6-tetrahydrocyclopenta[c]pyrrol-4-amine], for which 470 nM corresponded to half-maximal inhibition (IC50).

Take `CNC1CCc2c1cn(S(=O)(=O)c1cccc(Cl)c1)c2-c1cc(Cl)ccc1Cl` (centres unmarked) [Example 23, 2-((3-chlorophenyl)sulfonyl)-1-(2,5-dichlorophenyl)-N-methyl-2,4,5,6-tetrahydrocyclopenta[c]pyrrol-4-amine]: the IC50 was determined as 410 nM.

Consider `CNC1CCc2c1cn(S(=O)(=O)c1cccc(Cl)c1)c2-c1ccc2c(c1)OCO2` (centres unmarked) [Example 28, 1-(benzo[d][1,3]dioxol-5-yl)-2-((3-chlorophenyl)sulfonyl)-N-methyl-2,4,5,6-tetrahydrocyclopenta[c]pyrrol-4-amine], for which the IC50 was found to be 590 nM.

Take `CNC1CCCc2c1cn(S(=O)(=O)c1cccc(OC)c1)c2-c1ccccc1F` (centres unmarked) [Example 122, 1-(2-fluorophenyl)-2-((3-methoxyphenyl)sulfonyl)-N-methyl-4,5,6,7-tetrahydro-2H-isoindole-4-amine]: the IC50 came to 1500 nM.

`CNC1CCc2c1cn(S(=O)(=O)c1cccc(Cl)c1)c2-c1ccc(F)cc1F` (centres unmarked) [Example 19, 2-((3-chlorophenyl)sulfonyl)-1-(2,4-difluorophenyl)-N-methyl-2,4,5,6-tetrahydrocyclopenta[c]pyrrol-4-amine] registered an IC50 of 280 nM.

The molecule `CCNC1CCCCc2c1cn(S(=O)(=O)c1cccc(Cl)c1)c2-c1ccccc1F` (centres unmarked) [Example 147, 2-((3-chlorophenyl)sulfonyl)-N-ethyl-1-(2-fluorophenyl)-2,4,5,6,7,8-hexahydrocyclohepta[c]pyrrol-4-amine] displayed an IC50 of 7040 nM.

In turn, `CNC1CCc2c1cn(S(=O)(=O)c1cccnc1)c2-c1ccccc1F` (centres unmarked) [Example 88, 1-(2-fluorophenyl)-N-methyl-2-(pyridin-3-ylsulfonyl)-2,4,5,6-tetrahydrocyclopenta[c]pyrrol-4-amine] registered an IC50 of 510 nM.

As to `CNC1CCc2c1cn(S(=O)(=O)c1cccc(Cl)c1)c2-c1cc(Cl)ccc1F` (centres unmarked) [Example 22, 1-(5-chloro-2-fluorophenyl)-2-((3-chlorophenyl)sulfonyl)-N-methyl-2,4,5,6-tetrahydrocyclopenta[c]pyrrol-4-amine], half-maximal inhibition (IC50) was put at 450 nM.
